Source: ChEMBL document CHEMBL3046024, “Ligand-based in silico 3D-QSAR study of PPAR- agonists” (Med Chem Res, 2011)

target: T1, Peroxisome proliferator-activated receptor gamma (Homo sapiens, UniProt P37231); assay: Transactivation activity at PPARgamma (unknown origin)
T1 sequence (P37231 whole entry): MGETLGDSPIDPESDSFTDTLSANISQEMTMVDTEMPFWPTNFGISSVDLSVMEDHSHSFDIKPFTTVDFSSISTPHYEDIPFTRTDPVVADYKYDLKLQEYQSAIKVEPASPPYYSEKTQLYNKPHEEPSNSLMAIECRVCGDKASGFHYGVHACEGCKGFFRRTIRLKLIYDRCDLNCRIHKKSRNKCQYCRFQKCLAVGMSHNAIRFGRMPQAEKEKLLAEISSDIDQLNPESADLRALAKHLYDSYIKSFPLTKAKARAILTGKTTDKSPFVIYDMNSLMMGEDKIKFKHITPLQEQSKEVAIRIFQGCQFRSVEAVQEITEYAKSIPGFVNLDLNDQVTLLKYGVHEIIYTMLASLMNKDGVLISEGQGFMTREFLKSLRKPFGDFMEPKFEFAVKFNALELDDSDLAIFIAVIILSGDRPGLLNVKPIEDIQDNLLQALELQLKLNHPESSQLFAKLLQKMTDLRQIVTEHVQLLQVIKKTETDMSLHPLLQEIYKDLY

| EC50 | SMILES |
| --- | --- |
| 9 µM | CCOC(=O)CN1C(=O)S/C(=C\c2ccc(C)cc2)C1=O |
| 11 µM | CCOC(=O)CN1C(=O)S/C(=C\c2cccc([N+](=O)[O-])c2)C1=O |
| 10 µM | CCOC(=O)CN1C(=O)SC(Cc2ccc(F)cc2)C1=O (stereo not given) |
| 10 µM | COC(=O)CN1C(=O)S/C(=C\c2ccc(O)cc2)C1=O |
| 8 µM | CCOC(=O)CN1C(=O)SC(Cc2ccc(N)cc2)C1=O (stereo not given) |
| > 0.4 µM | C/C(=N\OCCOc1ccc(CC2SC(=O)NC2=O)cc1)c1ccc(-c2ccccc2)cc1 (stereo not given) |
| 9 µM | COC(=O)CN1C(=O)SC(Cc2ccc(O)cc2)C1=O (stereo not given) |
| 10 µM | CCOC(=O)CN1C(=O)S/C(=C\c2ccc(C(F)(F)F)cc2)C1=O |
| 7 µM | CCOC(=O)CN1C(=O)S/C(=C\c2ccc(OC)cc2)C1=O |
| 11 µM | CCOC(=O)CN1C(=O)S/C(=C\c2ccc(OCCBr)cc2)C1=O |
| 9 µM | CCOC(=O)CN1C(=O)SC(Cc2ccc(C(F)(F)F)cc2)C1=O (stereo not given) |
| 12 µM | CCOC(=O)CN1C(=O)SC(Cc2ccc(OCCBr)cc2)C1=O (stereo not given) |
| 8 µM | CCOC(=O)CN1C(=O)S/C(=C\c2ccc(Cl)cc2)C1=O |

target: T1, Peroxisome proliferator-activated receptor gamma; assay: Transactivation activity at Homo sapiens (human) PPARgamma

| EC50 | SMILES |
| --- | --- |
| 1 µM | CCCc1cc(Oc2ccccc2)ccc1OCCCCOc1ccc(C2SC(=O)NC2=O)cc1 (stereo not given) |
| 1 µM | O=C1NC(=O)C(Cc2ccc3c(c2)CC[C@H](Cc2ccccc2)O3)S1 (stereo not given in full) [ENGLITAZONE] |
